The target of one data set is T1, hMAO-A (Homo sapiens, UniProt P21397).
T1 sequence (P21397 1-527): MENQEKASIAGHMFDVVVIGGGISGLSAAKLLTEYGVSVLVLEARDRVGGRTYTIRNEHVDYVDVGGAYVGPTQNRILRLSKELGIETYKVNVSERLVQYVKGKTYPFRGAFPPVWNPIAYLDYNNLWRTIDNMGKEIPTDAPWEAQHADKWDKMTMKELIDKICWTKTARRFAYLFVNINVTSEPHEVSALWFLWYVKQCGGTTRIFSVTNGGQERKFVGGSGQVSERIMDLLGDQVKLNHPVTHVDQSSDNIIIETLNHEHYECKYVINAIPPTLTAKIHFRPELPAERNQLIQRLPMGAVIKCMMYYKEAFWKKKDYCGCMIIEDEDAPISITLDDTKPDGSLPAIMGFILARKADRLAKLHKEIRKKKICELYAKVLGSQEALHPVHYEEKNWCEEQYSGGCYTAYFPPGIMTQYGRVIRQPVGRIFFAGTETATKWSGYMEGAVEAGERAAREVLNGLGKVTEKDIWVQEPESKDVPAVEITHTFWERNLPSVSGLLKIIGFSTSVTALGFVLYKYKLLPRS
Description: hMAO-A inhibition, IC50 determination (kynuramine fluorescence). Type of data set: biochemical. Here is the method: (§1) The procedure for the measurement of IC50 values for the inhibition of MAO has been reported. The enzyme reactions were prepared to a volume of […] in potassium phosphate buffer at pH 7.4 (100 mM, made isotonic with KCl) and contained kynuramine (50 μM) and the test inhibitors (0.003–100 µM). Stock solutions of the test inhibitors were prepared in DMSO and added to the reactions to yield 4% DMSO. The enzyme reactions were initiated with the addition of recombinant hMAO-A (0.0075 mg protein/mL) or hMAO-B (0.015 mg protein/mL) and incubated for 20 min at 37 °C. At endpoint, the reactions were terminated with 80 µL sodium hydroxide (2N) and the fluorescence of 4-hydroxyquinoline, the oxidation product of kynuramine, was measured (λex = 310; λem = 400 nm)[33]. 4-Hydroxyquinoline was quantified with a calibration curve (0.047–1.56 μM) and the rate of 4-hydroxyquinoline formation was fitted to the one site competition model of the Prism 5 software package (GraphPad). From the resulting sigmoidal plots, the IC50 values were estimated. All enzyme reactions were carried out in triplicate and IC50 values are given as the mean ± standard deviation (SD).

A further data set addresses T2, hMAO-B (Homo sapiens, UniProt P27338).
T2 sequence (P27338 1-520): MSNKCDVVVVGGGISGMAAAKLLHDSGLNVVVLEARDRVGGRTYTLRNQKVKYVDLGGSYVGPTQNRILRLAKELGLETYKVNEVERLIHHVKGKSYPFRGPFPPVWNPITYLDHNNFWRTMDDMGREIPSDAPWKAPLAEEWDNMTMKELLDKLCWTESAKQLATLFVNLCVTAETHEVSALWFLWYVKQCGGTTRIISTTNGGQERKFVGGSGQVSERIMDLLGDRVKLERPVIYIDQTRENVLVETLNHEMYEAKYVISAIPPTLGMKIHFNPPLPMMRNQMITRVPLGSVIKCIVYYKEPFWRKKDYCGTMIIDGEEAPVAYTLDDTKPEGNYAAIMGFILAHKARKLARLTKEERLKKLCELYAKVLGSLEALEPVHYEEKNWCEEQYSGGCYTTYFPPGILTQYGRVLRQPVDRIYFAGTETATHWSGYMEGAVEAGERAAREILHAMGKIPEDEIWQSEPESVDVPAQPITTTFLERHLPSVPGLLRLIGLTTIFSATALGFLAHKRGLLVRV
Description: hMAO-B inhibition, IC50 determination (kynuramine fluorescence). In kind it is biochemical. As for the experimental part: as §1

Data set [1] can be described thus: Phosphomolybdenum assay (PhosphoMo), total antioxidant activity. Conditions: concentration at which absorbance was 0.5. As for the experimental part:
The total antioxidant activity of the compounds was evaluated by phosphomolybdenum method according to Zengin et al.[35]. The sample solution (0.3 ml) was combined with 3 ml of reagent solution (0.6 M sulphuric acid, 28 mM sodium phosphate, and 4 mM ammonium molybdate) and the absorbance was recorded at 695 nm after 90 min incubation at 95 °C. The EC50, which is the effective concentration at which the absorbance was 0.5, was calculated for each compound and trolox, as a reference drug.

Data set [2] can be described thus: DPPH radical scavenging activity. Here is the method: The radical scavenging effect of the compounds using the 1,1-diphenyl-2-picrylhydrazyl (DPPH) radical was estimated according to Zengin et al.[36]. The sample solution (1 ml) was added to 4 ml of a 0.004% solution of DPPH in methanol. The sample absorbance was recorded at 517 nm after 30 min incubation at room temperature in the dark.
(§2) The scavenging activity of the compounds on the ABTS radical cation [ABTS,2,2′-azino-bis(3-ethylbenzothiazoline)-6-sulphonic acid] was measured according to the method of Zengin et al.[37] with slight modification. Briefly, ABTS^+ was produced directly by reacting a 7 mM ABTS solution with 2.45 mM potassium persulphate and allowing the mixture to incubate for 12–16 h in the dark at room temperature. Prior to initiating the assay, the ABTS solution was diluted with methanol to an absorbance of 0.700 ± 0.02 at 734 nm. The sample solution (1 ml) was added to the ABTS^+ solution (2 ml) and mixed, and the sample absorbance was recorded at 734 nm after 30 min incubation at room temperature. The corresponding IC50 value, which is the effective concentration at which 50% of DPPH/ABTS radicals are scavenged, was calculated for each compound and trolox, as a reference drug.
(DPPH is a stable violet radical that fades when it is reduced.)

The nature of data set [3]: ABTS radical cation scavenging activity. Here is the method: as §2
Data set [4] can be described thus: Cupric ion reducing activity (CUPRAC). Here is the method: The cupric ion reducing activity (CUPRAC) was determined according to the method of Zengin et al.[38]. The sample solution (0.5 ml) was added to a premixed reaction mixture containing CuCl2 (1 ml, 10 mM), neocuproine (1 ml, 7.5 mM), and NH4Ac buffer (1 ml, 1 M, pH 7.0). Similarly, a blank was prepared by adding the sample solution (0.5 ml) to a premixed reaction mixture (3 ml) without CuCl2. The absorbances of the sample and blank were subsequently recorded at 450 nm after 30 min incubation at room temperature. The absorbance of the blank was subtracted from that of the sample.
(§3) The FRAP (ferric reducing antioxidant power) assay was carried out as described by Zengin et al.[38]. The sample solution (0.1 ml) was added to the premixed FRAP reagent (2 ml) containing acetate buffer (0.3 M, pH 3.6), 2,4,6-tris(2-pyridyl)-s-triazine (10 mM) in 40 mM HCl, and ferric chloride (20 mM) in a ratio of 10/1/1 (v/v/v). The absorbance of the sample was subsequently recorded at 593 nm after 30 min incubation at room temperature. Both results were expressed as EC50 values, using trolox as a reference drug.

Data set [5] in a line: FRAP (ferric reducing antioxidant power) assay. Here is the method:
as §3

A short description of data set [6]: Metal chelating activity on ferrous ions. The note with it: ferrozine. Here is the method: Metal chelating activity on ferrous ions was evaluated by the method previously described. Briefly, the sample solution (2 ml) was added to FeCl2 solution (0.05 ml, 2 mM). The reaction was initiated by the addition of 5 mM ferrozine (0.2 ml). Similarly, a blank was prepared by adding the sample solution (2 ml) to FeCl2 solution (0.05 ml, 2 mM) and water (0.2 ml) without ferrozine. Then, the sample and blank absorbance were recorded at 562 nm after incubation for 10 min at room temperature. The absorbance of the blank was subtracted from that of the sample. EDTA was used as a positive control and this property was expressed as IC50 value for each compound.

Like-named read-outs stand apart in the source and are kept apart here.

With `O=[N+]([O-])c1cccc(-c2csc(NN=Cc3cccs3)n2)c1` [Compound 3, 1-(4-(3-Nitrophenyl)thiazol-2-yl)-2-(thiophen-2-ylmethylene)hydrazine], the IC50 on hMAO-A was 57.2 µM; in data set [2] it was 1190 ± 10 µM; in [3], 1050 ± 10 µM; in [6] it was greater than 5000 µM. Also, at hMAO-B (ratio (IC50 hMAO-A)/(IC50 hMAO-B)), the “Selectivity index (SI) for the MAO-B isoform” value is 8412. Also, the figures for the EC50 in data set [1], in data set [4] and in data set [5] were 1840 ± 180 µM, 590 ± 10 µM and 410 ± 20 µM, respectively.

`CC(=NNc1nc(-c2cccc([N+](=O)[O-])c2)cs1)c1ccc2ccc3ccccc3c2c1` [Compound 34, 1-(4-(3-Nitrophenyl)thiazol-2-yl)-2-(1-(phenanthren-3-yl)ethylidene)hydrazine]: the melting point is 255 to 257 °C. Also, on hMAO-A (recombinant hMAO-A, kynuramine 50 μM, 20 min, 37 °C, read-out: IC50 hMAO-A), the IC50 was found to be 101 µM. Further, on hMAO-B (recombinant hMAO-B, kynuramine 50 μM, 20 min, 37 °C, read-out: IC50 hMAO-B), the half-inhibitory concentration (IC50) worked out at 80.5 µM.

In general, IC50 refers to the point on the concentration scale where inhibition reaches its midpoint. In general, EC50 refers to the concentration that produces a half-maximal response. Low values mean an effect from little substance, high ones a need for much substance. As a reminder, the melting point is the temperature, or range, at which the solid turns liquid.

Source of the values: article PMC6366404, “4-(3-Nitrophenyl)thiazol-2-ylhydrazone derivatives as antioxidants and selective hMAO-B inhibitors: synthesis, biological activity and computational analysis” (Journal of Enzyme Inhibition and Medicinal Chemistry, 2019).
